# Measured values reported in patent US7417052B2, “Phenylene derivative having tetrazole ring or thiazolidinedione ring” (Sankyo Company, Limited, priority 2003, dated 2008).
# Tested on: pentosidine (AGEs) formation in serum of kidney failure patients
# Experiment: AGEs formation inhibitory effect (pentosidine production in serum protein, HPLC)
# Format: biochemical, human
# Settings: test compound final concentration 5 mM, incubated at 37° C. for one week, proportion to pentosidine production amount by control
# Method: AGEs Formation Inhibitory Effect
# A solution (50 μl) of the test compound (final concentration 5 mM) in dimethyl sulfoxide was added to a protein (450 μl, serum of kidney failure patients who gave informed consent), and the mixture was incubated at 37° C. for one week. Pentosidine, which is one of the AGEs produced, was measured as follows. To separate pentosidine produced in the protein, 10% trichloroacetic acid (50 μl) was added to the sample after the reaction (50 μl) and the mixture was centrifuged and the precipitated protein was recovered. The recovered protein was washed with 300 μl of 5% trichloroacetic acid, dried and hydrolyzed with 6N hydrochloric acid (100 μl) at 110° C. for 16 hrs. The amount (nmol/l) of pentosidine produced was measured by HPLC (ODS C18, 4.6×250 mm, 335 nm, 385 nm) using a fluorescence detector by the gradient of 30 min., 1.0 ml/min with 0.1% trifluoroacetic acid added distilled water/0.08% trifluoroacetic acid added 80% acetonitrile as a mobile phase (Miyata, T et al.: J. Am. Soc. Nephrol., 7, 1198-1206, 1996, and Miyata, T. et al.: Proc. Natl. Acad. Sci. USA, 93 2353-2358, 1996).
# To study AGEs formation inhibitory effect, the proportion of the aforementioned pentosidine production amount to the pentosidine production amount by control was calculated as pentosidine production rate (%).
row,SMILES,pentosidine production rate (%)
1,"CCCC1Cc2cc(C(=O)O)ccc2N(Cc2ccc(-c3ccccc3-c3nnn[nH]3)cc2)C1=O (stereo not shown) [Example 11, 2-oxo-3-propyl-1-[[4-[2-(1H-tetrazol-5-yl)phenyl]phenyl]methyl]-1,3,4-trihydroquinoline-6-carboxylic acid]",24.9
2,"O=C1CCc2ccccc2N1Cc1ccc(-c2ccccc2-c2nnn[nH]2)cc1 [Example 13, 1-[[4-[2-(1H-tetrazol-5-yl)phenyl]phenyl]methyl]-1,3,4-trihydroquinolin-2-one]",45.4
3,"CCCC1Cc2ccc(C(=O)O)cc2N(Cc2ccc(-c3ccccc3-c3nnn[nH]3)cc2)C1=O (stereo not shown) [Example 10, 2-oxo-3-propyl-1-[[4-[2-(1H-tetrazol-5-yl)phenyl]phenyl]methyl]-1,3,4-trihydroquinoline-7-carboxylic acid]",18.0
4,"CCCC1Oc2ccc(C(=O)O)cc2N(Cc2ccc(-c3ccccc3-c3nnn[nH]3)cc2)C1=O (stereo not shown) [Example 14, 3-oxo-2-propyl-4-[[4-[2-(1H-tetrazol-5-yl)phenyl]phenyl]methyl]-2H-benzo[e]1,4-oxazine-6-carboxylic acid]",22.1
5,"CCCCCCCC(=O)N(Cc1ccc(-c2ccccc2-c2nnn[nH]2)cc1)c1cccc(C(=O)O)c1 [Example 5, 3-[N-[[4-[2-(1H-tetrazol-5-yl)phenyl]phenyl]methyl]-N-octanoylamino]benzoic acid]",9.33
6,"CCCCC(=O)N(Cc1ccc(-c2ccccc2-c2nnn[nH]2)cc1)c1ccccc1C(=O)O [Example 8, 2-[N-[[4-[2-(1H-tetrazol-5-yl)phenyl]phenyl]methyl]-N-pentanoylamino]benzoic acid]",23.5
7,"CC(=O)N(Cc1ccc(-c2ccccc2-c2nnn[nH]2)cc1)c1cccc(C(=O)O)c1 [Example 2, 3-[N-[[4-[2-(1H-tetrazol-5-yl)phenyl]phenyl]methyl]-N-acetylamino]benzoic acid]",26.1
8,"CCCCC(=O)N(Cc1ccc(-c2ccccc2-c2nnn[nH]2)cc1)c1cccc(C(=O)OCc2oc(=O)oc2C)c1 [Example 6, (5-methyl-2-oxo-1,3-dioxolen-4-yl)methyl3-[N-[[4-[2-(1H-tetrazol-5-yl)phenyl]phenyl]methyl]-N-pentanoylamino]benzoate]",16.8
9,"CCCCC(=O)N(Cc1ccc(-c2ccccc2-c2nnn[nH]2)cc1)c1ccc(C(=O)O)cc1 [Example 9, 4-[N-[[4-[2-(1H-tetrazol-5-yl)phenyl]phenyl]methyl]-N-pentanoylamino]benzoic acid]",30.8
10,"CCCCC(=O)N(Cc1ccc(-c2nnn[nH]2)cc1)c1cccc(C(=O)O)c1 [Example 7, 3-[N-[[4-(1H-tetrazol-5-yl)phenyl]methyl]-N-pentanoylamino]benzoic acid]",27.2
11,"CCCCC(=O)N(Cc1ccc(-c2ccccc2-c2nnn[nH]2)cc1)c1cccc(C(=O)O)c1 [Example 1, 3-[N-[[4-[2-(1H-tetrazol-5-yl)phenyl]phenyl]methyl]-N-pentanoylamino]benzoic acid]",18.1
12,"CCCCC(=O)N(Cc1ccc(C2SC(=O)NC2=O)cc1)c1cccc(C(=O)O)c1 (stereo not shown) [Example 22, 3-[N-[4-(2,4-dioxothiazolidin-5-yl)benzyl]-N-pentanoylamino]benzoic acid]",12.4
13,"CCCc1nc2c(C)cc(C)nc2n1Cc1ccc(C2SC(=O)NC2=O)cc1 (stereo not shown) [Example 19, 5-[4-[(5,7-dimethyl-2-propylimidazo[4,5-b]pyridin-3-yl)methyl]phenyl]-1,3-thiazolidine-2,4-dione]",23.8
14,"CCCC1Cc2ccc(C(=O)OCc3oc(=O)oc3C)cc2N(Cc2ccc(-c3ccccc3-c3nnn[nH]3)cc2)C1=O (stereo not shown) [Example 12, (5-methyl-2-oxo-1,3-dioxolen-4-yl)methyl2-oxo-3-propyl-1-[[4-[2-(1H-tetrazol-5-yl)phenyl]phenyl]methyl]-1,3,4-trihydroquinoline-7-carboxylate]",29.0
15,"CCCC1Oc2ccc(C(=O)O)cc2N(Cc2ccc(-c3nnn[nH]3)cc2)C1=O (stereo not shown) [Example 15, 3-oxo-2-propyl-4-[4-[4-(1H-tetrazol-5-yl)phenyl]methyl]2-H-benzo[e]1,4-oxazine-6-carboxylic acid]",23.8
16,"CCc1nc2c(C)cc(C)nc2n1Cc1ccc(C2SC(=O)NC2=O)cc1 (stereo not shown) [Example 18, 5-[4-[(2-ethyl-5,7-dimethylimidazo[4,5-b]pyridin-3-yl)methyl]phenyl]-1,3-thiazolidine-2,4-dione]",18.0
17,"CCCC1Sc2ccc(C(=O)O)cc2N(Cc2ccc(-c3ccccc3-c3nnn[nH]3)cc2)C1=O (stereo not shown) [Example 16, 3-oxo-2-propyl-4-[[4-[2-(1H-tetrazol-5-yl)phenyl]phenyl]methyl]-2H-benzo[e]1,4-thiazine-6-carboxylic acid]",25.8
18,"CCCC1Sc2ccc(C(=O)O)cc2N(Cc2ccc(-c3nnn[nH]3)cc2)C1=O (stereo not shown) [Example 17, 3-oxo-2-propyl-4-[[4-(1H-tetrazol-5-yl)phenyl]methyl]2-H-benzo[e]1,4-thiazine-6-carboxylic acid]",35.0
19,"CCC(=O)N(Cc1ccc(-c2ccccc2-c2nnn[nH]2)cc1)c1cccc(C(=O)O)c1 [Example 3, 3-[N-[[4-[2-(1H-tetrazol-5-yl)phenyl]phenyl]methyl]-N-propanoylamino]benzoic acid]",21.3
20,"CCCC(=O)N(Cc1ccc(-c2ccccc2-c2nnn[nH]2)cc1)c1cccc(C(=O)O)c1 [Example 4, 3-[N-[[4-[2-(1H-tetrazol-5-yl)phenyl]phenyl]methyl]-N-butanoylamino]benzoic acid]",17.4

# Tested on: not given
# Experiment: not given
# Settings: not given
row,SMILES,melting point [°C]
1,"CCCC1Oc2ccc(C(=O)O)cc2N(Cc2ccc(-c3ccccc3-c3nnn[nH]3)cc2)C1=O (stereo not shown) [Example 14, 3-oxo-2-propyl-4-[[4-[2-(1H-tetrazol-5-yl)phenyl]phenyl]methyl]-2H-benzo[e]1,4-oxazine-6-carboxylic acid]",197 to 198
2,"CCc1nc2c(C)cc(C)nc2n1Cc1ccc(C2SC(=O)NC2=O)cc1 (stereo not shown) [Example 18, 5-[4-[(2-ethyl-5,7-dimethylimidazo[4,5-b]pyridin-3-yl)methyl]phenyl]-1,3-thiazolidine-2,4-dione]",221 to 222
